This note sets out measurements from publication PMC3935314 (Biochemical pharmacology, 2013).

The assay addresses GPR55 (Homo sapiens, UniProt Q9Y2T6). Briefly: saturable fluorescent ligand uptake in live cells, reduced by GPR55 siRNA. Type of assay: cell-based.

GPR55, sequence (Q9Y2T6 whole entry): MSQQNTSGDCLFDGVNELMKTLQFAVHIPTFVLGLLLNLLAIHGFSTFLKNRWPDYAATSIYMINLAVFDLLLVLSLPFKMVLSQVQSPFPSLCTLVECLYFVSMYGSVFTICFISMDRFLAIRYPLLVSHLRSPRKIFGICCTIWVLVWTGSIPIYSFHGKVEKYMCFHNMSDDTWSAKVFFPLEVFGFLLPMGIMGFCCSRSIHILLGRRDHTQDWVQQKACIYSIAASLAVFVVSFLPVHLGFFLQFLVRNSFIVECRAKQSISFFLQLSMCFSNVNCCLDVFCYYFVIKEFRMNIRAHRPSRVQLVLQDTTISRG

As to Tocrifluor 1117 [T1117], the half-maximal effective concentration (EC50) was ~8 nM.

By EC50 is commonly meant the concentration that produces a half-maximal response.
